Measured values: patent publication US12441985B2, “Methods for making insulin in vivo” (priority 2009, dated 2025)
Where “and” joins values, the source holds several entries; their conditions need not be identical. Identical values can stand only once. Like-named read-outs stand apart in the source and are kept apart here.

How the values were obtained:
Assay type in all cases: cell-based
[1] = tested on: human embryonic stem cells line H1; test: Immunocytochemistry of insulin and glucagon expression after Stage 4 TPB treatment (Example 1)
Description: Cells of the human embryonic stem cells line H1 were cultured on MATRIGEL® (1:30 dilution) (BD Biosciences; Cat #356231)-coated dishes with RPMI medium (Invitrogen; Cat #: 22400)+0.2% FBS+100 ng/ml activin A (PeproTech; Cat #120-14)+20 ng/ml WNT-3a (R&D Systems; Cat #1324-WN/CF) for one day followed by treatment with RPMI media+0.5% FBS+100 ng/ml activin A for an additional two days (Stage 1), then, • DMEM/F12 (Invitrogen; Cat #11330-032)+2% FBS+50 ng/ml FGF7 (PeproTech; Cat #100-19) for three days (Stage 2), then • DMEM-High glucose (Invitrogen; Cat #10569)+1% B27+50 ng/ml FGF7+0.25 μM Cyclopamine-KAAD (Calbiochem; Cat #239804)+100 ng/ml Noggin (R&D Systems; Cat #3344-NG) for four days (Stage 3), then • DMEM-High glucose+1% B27 (Invitrogen; Cat #0791)+100 ng/ml Noggin+1 μM ALK5 inhibitor II (Axxora; Cat #ALX-270-445)+500 nM TBP ((2S, 5S)-(E, E)-8-(5-(4-(Trifluoromethyl)phenyl)-2,4-pentadiemoylamino) benzolactam) (Calbiochem; Cat #565740) for six days (Stage 4).
As a control, separate populations of cells were treated with DMEM-High glucose+1% B27+100 ng/ml Noggin+1 μM ALK5 inhibitor II for six days (Stage 4, control group). […] Glucagon-expressing cells were also noted in the cultures that received TBP treatment. Most of the glucagon-expressing cells also co-expressed insulin (FIG. 1 panel A and B). […]

[2] = tested on: human embryonic stem cells line H1; test: FACS and immunocytochemistry after Stage 4 treatment with different concentrations of TPB (Example 1); conditions: for INS, percentage of the total cell population / NKX6.1, percentage of the total cell population / NKX6.1/INS, percentage of the total cell population / Synaptophysin, percentage of the total cell population: Stage 4 six days
Description: In a separate experiment, cells of the human embryonic stem cells line H1 were cultured on MATRIGEL® (1:30 dilution) coated dishes with RPMI medium+0.2% FBS+100 ng/ml activin A+20 ng/ml WNT-3a for one day followed by treatment with RPMI media+0.5% FBS+100 ng/ml activin A for an additional two days (Stage 1), then • a. DMEM/F12+2% FBS+50 ng/ml FGF7 for three days (Stage 2), then • b. DMEM-High glucose+1% B27+0.25 μM Cyclopamine-KAAD+2 μM Retinoic acid (RA)+100 ng/ml of Noggin for four days (Stage 3), then • c. Treatment 1: DMEM-High glucose+1% B27+100 ng/ml Noggin+1 μM ALK5 inhibitor II+500 nM TBP for six days (Stage 4, Treatment 1), or • d. Treatment 2: DMEM-High glucose+1% B27+100 ng/ml Noggin+1 μM ALK5 inhibitor II+100 nM TBP for six days (Stage 4, Treatment 2), or • e. Treatment 3: DMEM-High glucose+1% B27+100 ng/ml Noggin+1 μM ALK5 inhibitor II+20 nM TBP for six days (Stage 4, Treatment 3), or • f. Treatment 4: DMEM-High glucose+1% B27+100 ng/ml Noggin+1 μM ALK5 inhibitor II for six days (Stage 4, Treatment 4).
Immunocytochemistry analysis was used to assess the effects of the different concentrations of TPB on the formation of the cells of the present invention. […] FACS analysis confirmed that both treatments gave rise to 12% single insulin expressing cells in vitro and […] of that population also expressed NKX6.1 (Table 1—NKX6.1/INS expressing cells were 2.4% of the total population).

[3] = tested on: human embryonic stem cells line H1; conditions: for type of insulin expressing cells formed: 500 nM, after six days; for GCG (glucagon expressing cells), percentage of the total cell population / INS (single insulin expressing cells), percentage of the total cell population / INS/GCG (insulin and glucagon co-expressing cells), percentage of the total cell population / Synaptophysin, percentage of the total cell population: Stage 4 six days, TPB 500 nM, ILV 500 nM, GÖ 6976 5 μM, FACS
Description: Other protein kinase C activators were also tested. These were Indolactam V (ILV) (Axxora; Cat #ALX-420-011-C300) and phorbol-12-myristate-13-acetate (PMA) (Calbiochem; Cat #524400).

[4] = tested on: human embryonic stem cells line H1; test: FACS after six, nine or twelve days of Stage 4 TPB treatment (Example 3); conditions: 500 nM TPB
Description: In another experiment, cells of the human embryonic stem cells line H1 were cultured on […]® (1:30 dilution) coated dishes with RPMI medium+0.2% FBS+100 ng/ml activin A+20 ng/ml WNT-3a for one day followed by treatment with RPMI media+0.5% FBS+100 ng/ml activin A for an additional two days (Stage 1), then • DMEM/F12+2% FBS+50 ng/ml FGF7 for three days (Stage 2), then • DMEM-High glucose+1% B27+50 ng/ml FGF7+0.25 μM Cyclopamine-KAAD+2 μM Retinoic acid (RA)+100 ng/ml of Noggin+20 ng/ml Activin A+a p38 kinase inhibitor (JNJ3026582, at 2.5 μM) for four days (Stage 3), then • Treatment 10: DMEM-High glucose+1% B27+100 ng/ml Noggin+1 μM ALK5 inhibitor II+500 nM TPB for six days (Stage 4, Treatment 10), or • Treatment 11: DMEM-High glucose+1% B27+100 ng/ml Noggin+1 μM ALK5 inhibitor II+500 nM TPB for nine days (Stage 4, Treatment 11), or • Treatment 12: DMEM-High glucose+1% B27+100 ng/ml Noggin+1 μM ALK5 inhibitor II+500 nM TPB for twelve days (Stage 4, Treatment 12)

[5] = tested on: human embryonic stem cell line H1; test: Pancreatic endoderm marker expression after Stage 3 TPB treatment (Example 6)
Description: Briefly, cells of the human embryonic stem cell line H1 were cultured on MATRIGEL® (1:30 dilution) coated dishes and RPMI medium supplemented with 0.2% FBS, 100 ng/ml activin A and 20 ng/ml WNT-3a for one day, followed by treatment with RPMI media supplemented with 0.5% FBS and 100 ng/ml activin A, for an additional two days (Stage 1), then • DMEM/F12+2% FBS+50 ng/ml FGF7 for three days (Stage 2), then • T1: DMEM-High glucose+1% B27+0.25 μM Cyclopamine-KAAD+2 μM Retinoic acid (RA)+100 ng/ml of Noggin+FGF10 50 ng/ml for four days (Stage 3, T1) or, • T2: DMEM-High glucose+1% B27+0.25 μM Cyclopamine-KAAD+2 μM Retinoic acid (RA)+100 ng/ml of Noggin+FGF10 50 ng/ml+100 nM TPB for four days (Stage 3, T2), then • DMEM-High glucose+1% B27+100 ng/ml Noggin+1 μM ALK5 inhibitor II for six days (Stage 4)
NKX6.1 was undetectable by immunohistochemistry.

[6] = both 500 nM and 100 nM TPB treatments, FACS
[7] = cultures treated with TPB, immunocytochemistry
[8] = Stage 4 for nine days (Treatment 11)
[9] = Stage 4 for six days (Treatment 10)
[10] = Stage 4 for twelve days (Treatment 12)
[11] = 100 nM TPB at Stage 3 for four days (T2) compared to control group (T1)

Compound: CC(C)[C@H]1C(=O)N[C@H](CO)Cc2cc(NC(=O)/C=C/C=C/c3ccc(C(F)(F)F)cc3)ccc2N1C [TPB, (2S, 5S)-(E, E)-8-(5-(4-(Trifluoromethyl)phenyl)-2,4-pentadiemoylamino) benzolactam]
- insulin-expressing cells ([1]; 500 nM at Stage 4 for six days with Noggin and ALK5 inhibitor II, vs control without it, immunocytochemistry): increase
- insulin expressing cells that are single endocrine hormone expressing cells (no glucagon, somatostatin, ghrelin) ([1]; 500 nM at Stage 4 for six days, share of insulin expressing cells): about 60%
- insulin and glucagon co-expression ([2]; 20 nM TPB, similar to the control group, immunocytochemistry): most cells co-expressed insulin and glucagon
- number of single insulin-expressing cells ([2]; 500 nM and 100 nM TPB treatment groups, immunocytochemistry): Significant increases
- INS, percentage of the total cell population ([2]; TPB 100 nM, FACS): 14.4%
- NKX6.1, percentage of the total cell population ([2]; TPB 100 nM, FACS): 34.8%
- NKX6.1/INS, percentage of the total cell population ([2]; TPB 100 nM, FACS): 3.1%
- Synaptophysin, percentage of the total cell population ([2]; TPB 100 nM, FACS): 47.6%
- INS, percentage of the total cell population ([2]; TPB 500 nM, FACS): 9.4%
- NKX6.1, percentage of the total cell population ([2]; TPB 500 nM, FACS): 45.7%
- NKX6.1/INS, percentage of the total cell population ([2]; TPB 500 nM, FACS): 2.4%
- Synaptophysin, percentage of the total cell population ([2]; TPB 500 nM, FACS): 38.3%
- single insulin expressing cells [2, 6]: 12%
- single insulin expressing population that also expressed NKX6.1 [2, 6]: 15%
- type of insulin expressing cells formed ([3]; immunocytochemistry): demonstrated the formation of single insulin expressing cells
- GCG (glucagon expressing cells), percentage of the total cell population [3]: 4.6%
- INS (single insulin expressing cells), percentage of the total cell population [3]: 12%
- INS/GCG (insulin and glucagon co-expressing cells), percentage of the total cell population [3]: 7.1%
- Synaptophysin, percentage of the total cell population [3]: 30.6%
- insulin expressing cells that co-expressed NEUROD [3, 7]: majority
- insulin expressing cells that co-expressed NKX6.1 [3, 7]: 20%
- insulin expressing cells that co-expressed PDX1 [3, 7]: 20%
- insulin expressing cells that co-expressed somatostatin or ghrelin (GHRL) [3, 7]: Very few
- Glucagon, percentage of the total cell population [4, 8]: 6.6%
- Insulin, percentage of the total cell population [4, 8]: 10.0%
- Insulin/Glucagon, percentage of the total cell population [4, 8]: 7.8%
- NKX6.1, percentage of the total cell population [4, 8]: 33.5%
- NKX6.1/Insulin, percentage of the total cell population [4, 8]: 1.0%
- Synaptophysin, percentage of the total cell population [4, 8]: 43.5%
- Glucagon, percentage of the total cell population [4, 9]: 2.0%
- Insulin, percentage of the total cell population [4, 9]: 27.8%
- Insulin/Glucagon, percentage of the total cell population [4, 9]: 16.4%
- NKX6.1, percentage of the total cell population [4, 9]: 44.2%
- NKX6.1/Insulin, percentage of the total cell population [4, 9]: 11.0%
- Synaptophysin, percentage of the total cell population [4, 9]: 49.7%
- Glucagon, percentage of the total cell population [4, 10]: 4%
- Insulin, percentage of the total cell population [4, 10]: 4.4%
- Insulin/Glucagon, percentage of the total cell population [4, 10]: 6.3%
- NKX6.1, percentage of the total cell population [4, 10]: 32.5%
- NKX6.1/Insulin, percentage of the total cell population [4, 10]: 1.0%
- Synaptophysin, percentage of the total cell population [4, 10]: 37.6%
- NKX6.1 by immunohistochemistry ([5]; 100 nM TPB at Stage 3 for four days (T2)): undetectable
- expression of NKX6.1 [5, 11]: significant down-regulation
- expression of PDX1 [5, 11]: significant down-regulation
- expression of PTF1 alpha [5, 11]: significant down-regulation

Compound: CC(C)[C@H]1C(=O)N[C@H](CO)Cc2c[nH]c3cccc(c23)N1C [ILV, Indolactam V]
- type of insulin expressing cells formed ([3]; immunocytochemistry): cells co-expressing insulin and glucagon
- GCG (glucagon expressing cells), percentage of the total cell population [3]: 12% and 12.6%
- INS (single insulin expressing cells), percentage of the total cell population [3]: 3%
- INS/GCG (insulin and glucagon co-expressing cells), percentage of the total cell population [3]: 12.9%
- Synaptophysin, percentage of the total cell population [3]: 56.8%

Compound: CCCCCCCCCCCCCC(=O)O[C@@H]1[C@@H](C)[C@@]2(O)[C@@H](C=C(CO)C[C@]3(O)C(=O)C(C)=C[C@@H]23)[C@@H]2C(C)(C)[C@]12OC(C)=O [PMA, phorbol-12-myristate-13-acetate]
- type of insulin expressing cells formed ([3]; immunocytochemistry): cells co-expressing insulin and glucagon
